{"source": "paper PMC3528769", "about": "“Comparative Study of the Fatty Acid Binding Process of a New FABP from Cherax quadricarinatus by Fluorescence Intensity, Lifetime and Anisotropy” (PLoS ONE, 2012)", "format_in_all_cases": "binding", "key": {"Cq-FABP [1]": {"molecular_target": "T1, Cq-FABP (Cherax quadricarinatus, UniProt L0I6Z9)", "T1 sequence (L0I6Z9 entry or part of it)": "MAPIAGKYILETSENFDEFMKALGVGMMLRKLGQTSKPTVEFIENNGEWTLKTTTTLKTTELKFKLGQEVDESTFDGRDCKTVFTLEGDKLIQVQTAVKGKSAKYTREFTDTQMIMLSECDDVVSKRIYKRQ", "assay": "ANS fluorescence intensity titration and equilibrium displacement of ANS by fatty acids", "conditions": "calculated from equilibrium displacement experiments using the fluorescence intensity of ANS (Eq. 1); read-out: Kd,FA", "protocol": "(§1) Fluorescence emission spectra were measured at 25°C on a Cary-Eclipse spectrofluorimeter (Varian, CA, USA) equipped with a thermostated cell holder, using solutions (70 µl) placed in microcuvettes (pathlength, 0.3 cm). The binding of non-fluorescent fatty acids (PA, OA, LA, EPA and DHA) to Cq-FABP was measured indirectly by equilibrium displacement experiments using ANS as a fluorescent probe, either by measuring the fluorescence emission of ANS or by measuring the FRET between tryptophan and ANS, resulting in the quenching of donor fluorescence. The excitation wavelength was then set at 296 or 350 nm for tryptophan or ANS, respectively; the slit widths and PMT voltage were adjusted to optimize the fluorescence signal at 25°C. For titration experiments, the fluorescence emission spectrum of tryptophan or ANS was measured and the integrated fluorescence signal of tryptophan (315–360 nm) or ANS (440–600 nm) was calculated. For samples containing high concentrations of ANS, the inner-filter effect was not negligible and was corrected. UV-visible absorption spectra were carried out on a Uvikon XL spectrophotometer.\nThe equilibrium dissociation constant (Kd,FA) relative to the binding of fatty acids (FA) to Cq-FABP was determined by competition experiments using ANS displacement and linear regression of the following relationship: [drawing 1] (1) where Kd,ANS is the dissociation constant relative to the binding of ANS to the fatty acid binding site, Kd ^app ,ANS is the apparent dissociation constant of ANS obtained in the presence of a given fatty acid concentration."}, "Cq-FABP [2]": {"molecular_target": "T1, Cq-FABP", "assay": "Steady-state FRET between the single Trp (W49) and ANS, Trp quenching and recovery by PA", "conditions": "read-out: Kd,PA", "protocol": "as §1"}, "Cq-FABP [3]": {"molecular_target": "T1, Cq-FABP", "assay": "Time-resolved Trp fluorescence lifetime (single-photon counting) with ANS and PA", "conditions": "for FRET efficiency: from lifetimes", "protocol": "The distribution of fluorescence lifetimes of tryptophan was determined by monitoring the intensity decay, I(t), using the single-photon counting technique [27]–[31]. Briefly, the excitation light pulse source was a Ti:sapphire laser (Mai Tai femtosecond laser, Spectra Physics, Mountain View, CA, USA) associated with a third harmonic generator tuned to 296 nm. The laser frequency was reduced from 80 to 8 MHz using a pulse picker (Spectra Physics). Fluorescence emission was detected by a microchannel plate photomultiplier (Hamamatsu model R3809U-05) through a monochromator (ARC SpectraPro-150) set at 340 nm (Δλ = 15 nm) with the emission polarizer set at the magic angle (54.7°). A time-correlated single-photon counting SPC-430 card (Becker–Hickl, Berlin, Germany) was used for the acquisition. Experiments were performed at 25°C using 5 µM Cq-FABP in buffer C. The average fluorescence lifetime values (τm), as reported in Table 1, were calculated from the lifetime distributions recovered by the maximum entropy method, [29], [32]. For example, Cq-FABP alone was characterized by three fluorescence lifetimes (τ1 = 0.6 ns (6%), τ2 = 2.67 ns (53%), τ3 = 3.89 (41%); τm = 3.04 ns)."}, "Cq-FABP [4]": {"molecular_target": "T1, Cq-FABP", "assay": "cis-Parinaric acid fluorescence intensity titration and competitive displacement", "conditions": "calculated from the IC50 values (Eq. 2) using the fluorescence intensity of cis-parinaric acid; 7 µM CPA, 5 µM Cq-FABP; read-out: Kd,FA", "from_the_text": "Cis-parinaric acid and DAUDA were characterized by fluorescence emission in the 380–500 nm region (λmax,em: 410 nm) and in the 480–650 nm region (λmax,em: 540 nm), respectively (excitation wavelengths were set at 320 or 335 nm for cis-parinaric acid or DAUDA, respectively). The fluorescence intensity enhancement upon binding to Cq-FABP was monitored on a Cary-Eclipse spectrofluorimeter as indicated above. All the fluorescence emission intensities were corrected for the inner-filter effect. The emission intensity of a given fluorophore in the presence of Cq-FABP was also systematically corrected for the emission intensity of the free fluorophore. The calculation of Kd,FA was performed by measuring the IC50 value (inhibition concentration 50%) characterizing each non-fluorescent FA. As DAUDA poorly binds to Cq-FABP (see results section), only cis-parinaric acid (CPA) was used for measuring IC50 values. Titration and equilibrium displacement experiments using CPA were performed in buffer C (supplemented with 10% DMSO (v/v)). For the determination of IC50 values, the number of complexes corresponding to [CPA] = 7 µM and [Cq-FABP] = 5 µM was varied by increasing the concentration of non-fluorescent FA. The IC50 value corresponds to the concentration of non-fluorescent FA that displaces 50% of CPA from the fatty acid binding site of Cq-FABP and is related to Kd,FA through the Cheng-Prusoff relationship: [drawing 2] (2)"}, "[5]": {"conditions": "5 µM Cq-FABP + 50 µM ANS + 70 µM PA"}, "[6]": {"conditions": "5 µM Cq-FABP + 200 µM ANS + 70 µM PA"}}, "data": [{"smiles": "CCCCCCCCCCCCCCCC(=O)O", "note": "[PA, Palmitic acid]", "values": [{"measurement": "Kd", "setting": "Cq-FABP [1]", "value": "1.1 ± 0.3", "unit": "µM"}, {"measurement": "Kd", "setting": "Cq-FABP [2]; FRET efficiency parameter, from slope of Kd app,PA versus [ANS] (Fig. 5B), average Kd,ANS 27.85 µM", "value": 0.83, "unit": "µM"}, {"measurement": "Kd", "setting": "Cq-FABP [2]; FRET efficiency parameter, y-intercept of Kd app,PA versus [ANS] (Fig. 5B)", "value": 1.9, "unit": "µM"}, {"measurement": "Kd", "setting": "Cq-FABP [2]; Trp fluorescence intensity parameter, from slope of Kd app,PA versus [ANS] (Fig. 5A), average Kd,ANS 27.85 µM", "value": 1.29, "unit": "µM"}, {"measurement": "Kd", "setting": "Cq-FABP [2]; Trp fluorescence intensity parameter, y-intercept of Kd app,PA versus [ANS] (Fig. 5A)", "value": 1.47, "unit": "µM"}, {"measurement": "Average fluorescence Lifetime, τm", "setting": "Cq-FABP [3]; [5]", "value": 2.77, "unit": "ns"}, {"measurement": "FRET efficiency", "setting": "Cq-FABP [3]; [5]", "value": 8.9, "unit": "%"}, {"measurement": "Average fluorescence Lifetime, τm", "setting": "Cq-FABP [3]; 5 µM Cq-FABP + 70 µM PA", "value": 2.96, "unit": "ns"}, {"measurement": "Average fluorescence Lifetime, τm", "setting": "Cq-FABP [3]; [6]", "value": 2.34, "unit": "ns"}, {"measurement": "FRET efficiency", "setting": "Cq-FABP [3]; [6]", "value": 23, "unit": "%"}, {"measurement": "Kd", "setting": "Cq-FABP [4]", "value": "1.8 ± 0.4", "unit": "µM"}]}]}
